Test: gradient 5% acetonitrile 3 min, to 50% in 2 min, to 85% in 15 min, held 3 min, 100 µL/min
Conditions: column: Zorbax Extend-C18 2.1 x 50 mm; eluents: water / acetonitrile, 0.1% formic acid
Summary of the method: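 Each retention time is based on an adduct peak selected computationally and verified by manual inspection. Measurements used HPLC–quadrupole time-of-flight mass spectrometry in positive and negative ionization mode on mixtures of ~100 pure standards. Chromatography ran on a Zorbax Extend-C18 column (2.1 × 50 mm, 1.8 μm) at 100 μL/min with water and acetonitrile, each containing 0.1% formic acid, and dead and dwell volumes of 40 μL and 900 μL.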

RP-LC retention time | SMILES
575 s | CCN1CCN(C(=O)C2CCCN(c3ncnc4c3nc3n4CCCCC3)C2)CC1 (centres undefined)
1130 s | COC(=O)c1ccc2c(=O)n(-c3cccc(C)c3)c(N3CCSC3)nc2c1
947 s | O=C1C(O)=C(S(=O)(=O)c2ccccc2)C(c2ccccc2)N1Cc1ccccc1 (centres undefined)
946 s | Cn1cc(-c2nc(C(=O)Nc3cccc(C#N)c3)cs2)c2cccnc21
645 s | NC(=O)c1cc(-c2ccc(F)cc2)n[nH]1
886 s | Cc1[nH]c(C(=O)N2CCC(CC(=O)NC3CCCCCC3)CC2)c(C)c1C(=O)OC(C)C
774 s | CC(C)c1c(C2CCN(C(=O)c3cc(F)ccc3F)CC2)noc1N
754 s | Cc1ccc(-n2nc3c(N4CCCC(C(=O)NCc5ccccc5)C4)nnc(C)c3c2C)cc1 (centres undefined)
586 s | CCc1cc(N2CCN(C(=O)c3ccc(N(C)C)cc3)CC2)nc2nncn12
1170 s | COc1ccc2c(c1)-c1nc(NC(=O)c3ccc(C)cc3)sc1CC2
634 s | CCCc1cc(N2CCN(C(=O)COc3ccccc3)CC2)nc2nnc(C)n12
1140 s | Cc1ccc(NC(=O)Cn2nc(N3CCCC(C)C3)c3ccccc3c2=O)cc1 (centres undefined)
541 s | O=C(C1CCOC1)N1CCC(c2nncn2Cc2ccccc2)CC1 (centres undefined)
773 s | CC(=O)Nc1ccc(C2(C(=O)NCc3cccc(C)c3)CCC2)cc1
616 s | O=C(Cc1csc(NC(=O)c2ccc(=O)[nH]c2)n1)NCc1ccccc1Cl
902 s | CCOC(=O)C1=C(C)NC2=C(C(=O)c3ccccc32)C1c1cccc(OC)c1OC (centres undefined)
780 s | Cc1ccc(C)n1-c1nnc(N2CCCC(C(=O)NC3CC3)C2)s1 (centres undefined)
628 s | CCCN(Cc1ccc(OC)cc1)Cc1cc(=O)n2ccc(C)cc2n1
995 s | Cc1sc(-c2ccn[nH]2)cc1NC(=O)c1cccc(N(C)C)c1
597 s | CCCNC(=O)N1CCN(Cc2nc3cccnc3n2-c2ccccc2)CC1
721 s | Cc1nn(-c2ccc(C(=O)N3CCCCC3)cc2)c2c1C(=O)CCC2
725 s | CCOCCOC1CCN(C(=O)c2cccs2)CC1

RP-LC retention time | SMILES
573 s | O=C(Cc1csc(NC(=O)c2ccsc2)n1)NCc1nc2ccccc2[nH]1
866 s | CCOC(=O)c1c(C)[nH]c(C(=O)N2CCC(CC(=O)NCc3ccc(OC(C)C)cc3)CC2)c1C
746 s | C=CCNC(=O)C(=O)Nc1ccc2c(c1)N(C(=O)C(C)C)CCC2
1010 s | COc1ccc(C(=O)Nc2nc(CC(=O)Nc3nc4c(C)cccc4s3)cs2)cc1
955 s | Cc1cc(C)n(Cc2nc(-c3ccc(NC(=O)c4ccc(C)s4)cc3)oc2C)n1
1240 s | Cc1ccccc1S(=O)(=O)N1CCc2nc(-c3ccc(Cl)cc3)ncc2C1
638 s | COc1ccccc1NC(=O)CN1CCc2[nH]c3c(OC)ccc(Cl)c3c(=O)c2C1
1180 s | O=C(C1CCCCC1)N1CCc2nc(-c3ccc(Cl)cc3)ncc2C1
904 s | Cc1ccc(C(=O)N2CCCCC2c2nc(-c3ccncc3)no2)s1 (centres undefined)
1060 s | Cc1cc(C)cc(NC(=O)C2CCN(S(=O)(=O)c3c(C)nn(-c4ccccc4)c3C)CC2)c1
993 s | Cc1cccc(CNS(=O)(=O)c2cn(CC(C)C)c3ncccc23)c1
908 s | COc1ccc(C(C)NC(=O)Cn2nc3cc(-c4ccccc4)nc(C)n3c2=O)cc1 (centres undefined)
779 s | Cn1nccc1C(=O)NCc1ccc2c(c1)CCN2C(=O)c1ccc(F)cc1
1010 s | CCOc1ccc(-c2nc(C3CC(=O)N(c4ccc(OC)cc4)C3)no2)cc1 (centres undefined)
809 s | COc1cccc(C2=Nc3cccnc3N(CC(=O)NCc3ccco3)C(=O)C2)c1
922 s | COc1ccccc1NC(=O)N1CCc2nc(-c3ccccc3)ncc2C1
611 s | Cn1ncc2c3ccccc3n(CC(=O)N3CCC(C(N)=O)CC3)c2c1=O
659 s | Cc1cc(C(F)(F)F)nn1CC(=O)N1CCc2nn(C)c(=O)n2CC1
628 s | CCSc1nc(O)cc(=O)[nH]1
614 s | c1ccc(-c2nc(C3CC3)no2)c(OC2CNC2)c1
748 s | COc1ccc(CC(=O)Nc2ccc3c(c2)Sc2ncccc2C(=O)N3C)cc1
672 s | O=C(C1CCN(c2nn3c(=O)c4c(nc3s2)CCCC4)CC1)N1CCN(c2ncccn2)CC1

RP-LC retention time | SMILES
626 s | Cc1ccc(N2CCN(C(=O)c3cn4c(n3)CCCC4)CC2)cc1
711 s | Cc1nc2cc(N3CCCC(C(=O)Nc4ccc5c(c4)OCCO5)C3)cnc2nc1C (centres undefined)
690 s | COc1ccc2cc(C(=O)N3CCC(CC(=O)NC4CC4)CC3)[nH]c2c1
756 s | Cc1nn(-c2ccc(C(=O)NCc3ccco3)cc2)c2c1C(=O)CC(C)(C)C2
772 s | O=C(Nc1ccccc1F)C1CCCN(S(=O)(=O)c2c[nH]c(C(=O)N3CCCC3)c2)C1 (centres undefined)
655 s | COc1ccc(C(=O)N2CCC3(C2)C(=O)Nc2ccccc23)c(OC)c1 (centres undefined)
1160 s | O=S(=O)(c1cccc(Cl)c1)N1CCC(c2noc(-c3ccccc3)n2)CC1
969 s | Cc1noc(C)c1-c1ccc(S(=O)(=O)Nc2ccc(F)c(Cl)c2)cc1
871 s | CCCN(CC1CCOC1)C(=O)Nc1ccccc1C(F)(F)F (centres undefined)
753 s | CCn1cnc(S(=O)(=O)N2CCCC(C(=O)Nc3ccc(C)cc3C)C2)c1 (centres undefined)
1190 s | Cc1ccc(-c2nnc(-c3ccc(Br)cc3)o2)cc1S(=O)(=O)N1CCCC1
608 s | CCc1nnc2cc(N3CCN(Cc4ccc(C(C)C)cc4)CC3)cnn12
607 s | COc1ccc(F)cc1S(=O)(=O)N1CCC2(CC1)NCCCN=C2NC1CCCC1
814 s | CC(C)n1c(N2CCN(C(=O)c3c(F)cccc3F)CC2)cc(=O)n(C(C)C)c1=O
567 s | OC(COCc1ccc(Cl)cc1)CN1CCN(c2ccccn2)CC1 (centres undefined)
710 s | Cc1ccc(-c2nc3cnccn3c2NCCC(=O)NCc2ccc(C)o2)cc1
615 s | CN(C)[C@@H]1CN(C(=O)CC2CCCCC2)CC[C@@H]1CO
580 s | CC(Sc1nnnn1-c1ccccc1)C(=O)Nc1ccc(N2CCN(C)CC2)cc1 (centres undefined)
946 s | CCc1ccccc1NC(=O)Cn1nc2c(Oc3cc(C)cc(C)c3)nccn2c1=O
1010 s | Cc1cccc(Sc2nccnc2N2CCCC(C(=O)N3CCCC3)C2)c1 (centres undefined)
871 s | CC(=O)c1ccc(NC(=O)c2cc(C(F)(F)F)n(C)n2)cc1
804 s | COc1ccc(OCc2noc(CNC(=O)Nc3ccccc3F)n2)cc1

RP-LC retention time | SMILES
820 s | COc1ccc(CCNc2ncc(C(=O)O)c(C(C)C)n2)cc1OC
1060 s | COc1ccc(NS(=O)(=O)c2c(C)nn(-c3ccc(-c4ccc(C)cc4)nn3)c2C)cc1
773 s | CC(C)N1C(=O)c2cccnc2Sc2cc(NC(=O)c3ccoc3)ccc21
899 s | CC(C)NC(=O)c1ccc(OCC2CCCN(C(=O)c3cccc(Cl)c3)C2)cc1 (centres undefined)
521 s | OC[C@@H]1CN(Cc2ccc(OC(F)(F)F)cc2)C[C@H]1c1ccncc1
655 s | O=C(Cn1cnc2nc(N3CCCC(C(=O)NC4CC4)C3)sc2c1=O)Nc1cccc(F)c1 (centres undefined)
1210 s | Cc1ccc(-c2csc(Cc3nc(-c4ccc5c(c4)OCO5)no3)n2)cc1
773 s | O=C(Nc1ccc2c(c1)OCCO2)N1CCC(N2CCN(Cc3ccc(F)cc3)C2=O)CC1
1020 s | COc1ccc(S(=O)(=O)Cc2nc(-c3cccc(Cl)c3)no2)cc1
621 s | O=C(c1cc(-c2ccco2)on1)N1CCn2c1nc1ccccc12
726 s | COc1ccccc1NC(=O)C1CC(=O)N(c2ccc3oc(C)nc3c2)C1 (centres undefined)
873 s | Cn1c(=O)n(C)c2cc(S(=O)(=O)c3ccc(F)cc3)c(NC(=O)Cc3cccc(F)c3)cc21
1110 s | Cc1cccc(Cn2nc(-c3nc(C(C)(C)C)no3)ccc2=O)c1
890 s | Cc1ccc(CNC(=O)N2CCCC(C)(C(=O)NCc3ccc(F)cc3)C2)cc1 (centres undefined)
617 s | CCC1CN(C(=O)N2CCC(C(=O)NCCCN3CCN(C)CC3)CC2)c2cc(C)ccc2O1 (centres undefined)
710 s | COc1cccc(-n2c(N3CCCC(C(=O)NC4CC4)C3)nc3ccsc3c2=O)c1 (centres undefined)
582 s | O=C(NC1CCCC1)C1CCN(C(=O)c2cc(-c3ccncc3)n[nH]2)CC1
825 s | Cc1noc(C)c1Cc1ccc(C(=O)N2CCCC2c2nc(CCOCC3CC3)no2)o1 (centres undefined)
641 s | COCCN1[C@@H]2CCN(Cc3ccc(C#N)cc3)C[C@@]2(C(=O)N2CCOCC2)CCS1(=O)=O
593 s | CCNC(=O)c1nc(N(C)C)c2c(C)scc2n1

SMILES | RP-LC retention time
CC(CC(C#N)(c1ccccc1)c1ccccc1)N1CCCCC1 (centres undefined) | 780 s
CC1CCN(c2cc(-n3cnc(C(=O)N4CCC5(CC4)OCCO5)c3)ncn2)CC1 | 834 s
COc1ccc(C2=NCC(=O)N(CC(=O)Nc3cc(F)ccc3F)c3sccc32)cc1 | 702 s

— the METLIN SMRT retention time set (Domingo-Almenara et al. 2019)
